According to ChEMBL document CHEMBL1140165, “Rotationally constrained 2,4-diamino-5,6-disubstituted pyrimidines: a new class of histamine H4 receptor antagonists with improved druglikeness and in vivo efficacy in pain and inflammation models” (J Med Chem, 2008):
Calls of active or inactive are those of the source. The rule behind the calls is not given here.

Key:
Rattus norvegicus [1] = experiment: Antinociceptive efficacy in ip dosed rat assessed as inhibition of carrageenan-induced inflammatory pain in paw after 30 mins by hotbox assay relative to control; type: functional
[2] = Selectivity ratio of Ki for human histamine H4 receptor to Ki for adrenergic alpha1 receptor
[3] = Ratio of drug level in brain to plasma in rat at 10 mg/kg, iv after 30 mins; type: ADME, organism-based; design: dose 10 mg/kg, route intravenous
Histamine H4 receptor [4] = target: T1, Histamine H4 receptor (Rattus norvegicus, UniProt Q91ZY1); experiment: Displacement of [3H]histamine from rat histamine H4 receptor expressed in HEK293 cells; type: cell-based
[5] = Selectivity ratio of Ki for human histamine H4 receptor to Ki for histamine H1 receptor
[6] = target: Cannabinoid receptor 2 (Homo sapiens) (UniProt P34972); experiment: Binding affinity to CB2 receptor
[7] = Selectivity ratio of Ki for human histamine H4 receptor to Ki for dopamine D2 receptor
Rattus norvegicus [8] = experiment: Antinociceptive efficacy in rat assessed as inhibition of carrageenan-induced inflammatory pain in paw at 100 umol/kg, ip after 30 mins by hotbox assay relative to control; type: functional
Histamine H4 receptor [9] = target: T2, Histamine H4 receptor (Mus musculus, UniProt Q91ZY2); experiment: Antagonist activity at mouse histamine H4 receptor expressed in HEK293 cells assessed as inhibition of histamine-induced intracellular calcium elevation by FLIPR assay; type: functional, cell-based
T2 sequence (Q91ZY2 whole entry): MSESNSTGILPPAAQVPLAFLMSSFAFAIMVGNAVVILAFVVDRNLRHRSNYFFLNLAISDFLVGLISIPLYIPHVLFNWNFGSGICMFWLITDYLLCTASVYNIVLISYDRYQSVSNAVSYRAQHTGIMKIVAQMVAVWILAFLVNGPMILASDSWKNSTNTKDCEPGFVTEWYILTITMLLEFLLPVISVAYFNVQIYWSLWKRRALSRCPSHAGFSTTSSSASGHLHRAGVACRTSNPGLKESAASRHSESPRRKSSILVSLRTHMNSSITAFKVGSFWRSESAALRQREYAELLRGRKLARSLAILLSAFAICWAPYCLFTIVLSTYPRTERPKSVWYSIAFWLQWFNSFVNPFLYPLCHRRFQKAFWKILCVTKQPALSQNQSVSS

[10] = target: Cannabinoid receptor 1 (Homo sapiens) (UniProt P21554); experiment: Binding affinity to CB1 receptor
[11] = Metabolic stability in mouse liver microsomes; type: ADME, Microsome
[12] = Protein binding in human; type: ADME, organism-based; settings: in vivo, read-out: PB (converted)
Cytochrome P450 3A4 = Cytochrome P450 3A4 (Homo sapiens, UniProt P08684); experiment: Inhibition of CYP3A4 upto 10 uM; type: ADME
[13] = Selectivity ratio of Ki for human histamine H4 receptor to Ki for 5HT1A receptor
Cytochrome P450 2D6 = Cytochrome P450 2D6 (Homo sapiens, UniProt P10635); experiment: Inhibition of CYP2D6 upto 10 uM; type: ADME
Mus musculus [14] = experiment: Antiinflammatory activity against ip dosed BALB/c mouse assessed as inhibition of zymosan-induced peritonitis after 2 hrs pretreated 30 mins before zymosan challenge; type: functional
Histamine H4 receptor [15] = target: T3, Histamine H4 receptor (Homo sapiens, UniProt Q9H3N8); experiment: Displacement of [3H]histamine from human histamine H4 receptor expressed in HEK293 cells; type: cell-based; settings: read-out: Ki
[16] = Protein binding in rat; type: ADME, organism-based; settings: in vivo, read-out: PB (converted)
Mus musculus [17] = experiment: Inhibition of clobenpropit-induced itching in ip dosed CD1/ICR mouse assessed as blockade of scratching in hind paw for 25 mins pretreated 30 mins before clobenpropit challenge; type: functional
Liver microsomes [18] = experiment: Metabolic stability in human liver microsomes; type: ADME, Microsome
[19] = target: Delta-type opioid receptor (Homo sapiens) (UniProt P41143); experiment: Binding affinity to delta opioid receptor
[20] = target: Mu-type opioid receptor (Homo sapiens) (UniProt P35372); experiment: Binding affinity to mu opioid receptor
[21] = Selectivity ratio of Ki for human histamine H4 receptor to Ki for 5HT1D receptor
[22] = target: T4, Prostaglandin G/H synthase 2 (Homo sapiens) (UniProt P35354); experiment: Binding affinity at COX2
T4 sequence (whole entry): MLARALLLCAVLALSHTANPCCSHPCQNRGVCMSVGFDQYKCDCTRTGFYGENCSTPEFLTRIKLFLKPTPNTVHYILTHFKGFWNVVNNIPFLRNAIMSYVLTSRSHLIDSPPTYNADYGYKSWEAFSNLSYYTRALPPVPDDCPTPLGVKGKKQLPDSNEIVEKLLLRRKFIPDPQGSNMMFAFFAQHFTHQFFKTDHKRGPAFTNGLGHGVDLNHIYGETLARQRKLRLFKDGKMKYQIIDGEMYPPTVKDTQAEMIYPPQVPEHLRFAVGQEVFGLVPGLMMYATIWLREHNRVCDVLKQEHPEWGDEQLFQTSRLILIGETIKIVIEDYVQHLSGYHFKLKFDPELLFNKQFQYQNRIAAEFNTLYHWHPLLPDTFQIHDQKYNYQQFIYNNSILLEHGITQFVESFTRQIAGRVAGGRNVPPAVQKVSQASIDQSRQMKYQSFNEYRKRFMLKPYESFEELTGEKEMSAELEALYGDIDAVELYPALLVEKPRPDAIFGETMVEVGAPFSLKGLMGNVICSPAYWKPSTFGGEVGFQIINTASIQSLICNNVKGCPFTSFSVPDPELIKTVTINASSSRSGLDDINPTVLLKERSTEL

[23] = Selectivity ratio of Ki for human histamine H4 receptor to Ki for 5HT2A receptor
Cytochrome P450 2C9 = Cytochrome P450 2C9 (Homo sapiens, UniProt P11712); experiment: Inhibition of CYP2C9 upto 10 uM; type: ADME
Histamine H4 receptor [24] = target: T1, Histamine H4 receptor; experiment: Antagonist activity at rat histamine H4 receptor expressed in HEK293 cells assessed as inhibition of histamine-induced intracellular calcium elevation by FLIPR assay; type: functional, cell-based
Liver microsomes [25] = experiment: Metabolic stability in rat liver microsomes; type: ADME, Microsome
[26] = target: Prostaglandin G/H synthase 1 (Homo sapiens) (UniProt P23219); experiment: Binding affinity at COX1
[27] = target: Kappa-type opioid receptor (Homo sapiens) (UniProt P41145); experiment: Binding affinity to kappa opioid receptor
Histamine H4 receptor [28] = target: T3, Histamine H4 receptor; settings: HEK293
Homo sapiens = species on record: Homo sapiens; experiment: Selectivity ratio of Ki for human histamine H4 receptor to Ki for human histamine H3 receptor
Rattus norvegicus [29] = experiment: Antinociceptive efficacy in spinal nerve ligated Sprague-Dawley rat assessed as reduction of neuropathic pain in left side paw at 300 umol/kg, ip administered 30 mins before testing relative to control; type: functional
[30] = Selectivity ratio of Ki for human histamine H4 receptor to Ki for histamine H2 receptor
BMMC = experiment: Blockade of histamine-induced morphological changes in BALB/c mouse BMMC by flow cytometry; type: functional, cell-based
Rattus norvegicus [31] = experiment: Antinociceptive efficacy in spinal nerve ligated Sprague-Dawley rat assessed as reduction of neuropathic pain in left side paw at 100 umol/kg, ip administered 30 mins before testing relative to control; type: functional
Rattus norvegicus [32] = experiment: Antinociceptive efficacy in spinal nerve ligated Sprague-Dawley rat assessed as reduction of neuropathic pain in left side paw at 500 umol/kg, ip administered 30 mins before testing relative to control; type: functional

T3 sequence (Q9H3N8 whole entry): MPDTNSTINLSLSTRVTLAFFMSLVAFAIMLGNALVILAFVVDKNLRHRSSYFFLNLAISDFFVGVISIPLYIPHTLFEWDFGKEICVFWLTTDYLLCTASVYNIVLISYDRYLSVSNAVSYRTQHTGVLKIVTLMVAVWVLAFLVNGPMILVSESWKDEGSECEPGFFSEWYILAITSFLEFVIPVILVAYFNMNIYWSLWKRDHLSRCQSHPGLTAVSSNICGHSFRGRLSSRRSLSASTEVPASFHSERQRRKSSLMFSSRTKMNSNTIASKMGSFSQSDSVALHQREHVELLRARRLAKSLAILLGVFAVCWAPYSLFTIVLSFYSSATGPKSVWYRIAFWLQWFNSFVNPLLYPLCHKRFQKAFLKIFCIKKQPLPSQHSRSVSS
T1 sequence (Q91ZY1 whole entry): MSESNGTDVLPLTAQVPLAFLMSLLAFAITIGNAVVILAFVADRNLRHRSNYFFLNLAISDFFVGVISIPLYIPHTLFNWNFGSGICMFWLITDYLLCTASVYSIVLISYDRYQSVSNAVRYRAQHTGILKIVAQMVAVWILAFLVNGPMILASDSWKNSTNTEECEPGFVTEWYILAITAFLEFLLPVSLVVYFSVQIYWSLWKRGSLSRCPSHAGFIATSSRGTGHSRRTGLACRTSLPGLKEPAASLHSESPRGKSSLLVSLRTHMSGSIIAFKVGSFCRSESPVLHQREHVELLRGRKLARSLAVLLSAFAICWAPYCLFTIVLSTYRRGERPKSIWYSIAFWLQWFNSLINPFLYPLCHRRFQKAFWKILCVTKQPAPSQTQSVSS
Sequence of Mu-type opioid receptor (Homo sapiens) (P35372 whole entry): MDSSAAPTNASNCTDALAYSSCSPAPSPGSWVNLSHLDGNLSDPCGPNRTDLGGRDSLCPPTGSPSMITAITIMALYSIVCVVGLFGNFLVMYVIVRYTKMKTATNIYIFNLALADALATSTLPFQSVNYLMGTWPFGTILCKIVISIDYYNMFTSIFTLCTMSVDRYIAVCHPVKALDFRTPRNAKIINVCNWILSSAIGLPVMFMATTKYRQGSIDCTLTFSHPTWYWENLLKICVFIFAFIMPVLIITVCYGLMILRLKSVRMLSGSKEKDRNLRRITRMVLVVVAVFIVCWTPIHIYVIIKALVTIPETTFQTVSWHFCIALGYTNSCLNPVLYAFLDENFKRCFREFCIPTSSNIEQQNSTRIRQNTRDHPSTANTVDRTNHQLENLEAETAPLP
Sequence of Cytochrome P450 3A4 (P08684 whole entry): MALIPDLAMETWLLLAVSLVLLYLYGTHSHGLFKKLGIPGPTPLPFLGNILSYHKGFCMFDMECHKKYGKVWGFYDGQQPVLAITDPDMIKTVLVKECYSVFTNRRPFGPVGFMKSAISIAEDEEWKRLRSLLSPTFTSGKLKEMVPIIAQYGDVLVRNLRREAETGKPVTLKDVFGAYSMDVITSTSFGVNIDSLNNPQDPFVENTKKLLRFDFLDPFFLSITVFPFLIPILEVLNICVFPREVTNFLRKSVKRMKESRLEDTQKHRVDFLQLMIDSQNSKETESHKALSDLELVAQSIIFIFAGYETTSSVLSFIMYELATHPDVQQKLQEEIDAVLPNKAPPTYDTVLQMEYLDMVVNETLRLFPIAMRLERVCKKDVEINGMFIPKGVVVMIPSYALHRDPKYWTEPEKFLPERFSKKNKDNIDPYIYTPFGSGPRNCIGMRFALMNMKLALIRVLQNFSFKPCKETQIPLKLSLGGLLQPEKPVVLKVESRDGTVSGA
Sequence of Delta-type opioid receptor (Homo sapiens) (P41143 whole entry): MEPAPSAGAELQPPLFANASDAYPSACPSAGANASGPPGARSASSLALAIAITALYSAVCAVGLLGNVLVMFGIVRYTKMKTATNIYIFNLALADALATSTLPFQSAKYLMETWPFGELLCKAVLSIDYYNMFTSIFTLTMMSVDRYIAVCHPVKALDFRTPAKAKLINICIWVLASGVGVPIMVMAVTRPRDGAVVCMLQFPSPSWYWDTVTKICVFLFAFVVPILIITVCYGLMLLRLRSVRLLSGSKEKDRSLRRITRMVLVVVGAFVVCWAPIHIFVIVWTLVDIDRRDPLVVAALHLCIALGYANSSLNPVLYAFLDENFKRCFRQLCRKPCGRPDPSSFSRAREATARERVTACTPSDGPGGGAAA
Sequence of Kappa-type opioid receptor (Homo sapiens) (P41145 whole entry): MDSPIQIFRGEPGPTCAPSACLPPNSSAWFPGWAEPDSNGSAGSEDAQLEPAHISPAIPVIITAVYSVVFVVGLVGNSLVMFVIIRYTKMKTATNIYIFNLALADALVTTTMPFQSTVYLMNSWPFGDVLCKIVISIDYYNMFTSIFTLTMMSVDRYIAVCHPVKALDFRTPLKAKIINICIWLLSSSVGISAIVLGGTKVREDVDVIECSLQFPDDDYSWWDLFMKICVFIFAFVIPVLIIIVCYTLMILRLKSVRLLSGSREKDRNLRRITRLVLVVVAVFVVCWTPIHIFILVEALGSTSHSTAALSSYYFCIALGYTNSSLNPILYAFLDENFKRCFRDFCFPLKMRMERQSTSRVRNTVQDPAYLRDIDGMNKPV
Sequence of Cytochrome P450 2D6 (P10635 whole entry): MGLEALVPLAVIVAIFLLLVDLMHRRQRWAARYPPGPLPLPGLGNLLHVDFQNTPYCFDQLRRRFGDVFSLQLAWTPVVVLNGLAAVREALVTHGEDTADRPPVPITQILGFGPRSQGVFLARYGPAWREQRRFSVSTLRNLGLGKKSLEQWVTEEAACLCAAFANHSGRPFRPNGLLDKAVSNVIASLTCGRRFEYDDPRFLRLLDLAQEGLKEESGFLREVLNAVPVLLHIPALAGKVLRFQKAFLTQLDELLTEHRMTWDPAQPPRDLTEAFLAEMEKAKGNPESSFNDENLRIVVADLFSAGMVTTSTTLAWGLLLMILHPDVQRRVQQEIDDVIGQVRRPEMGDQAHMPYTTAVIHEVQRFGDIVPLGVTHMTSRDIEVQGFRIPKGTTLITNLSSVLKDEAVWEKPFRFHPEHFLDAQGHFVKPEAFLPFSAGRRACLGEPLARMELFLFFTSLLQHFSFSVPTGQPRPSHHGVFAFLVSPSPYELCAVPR
Sequence of Cytochrome P450 2C9 (P11712 whole entry): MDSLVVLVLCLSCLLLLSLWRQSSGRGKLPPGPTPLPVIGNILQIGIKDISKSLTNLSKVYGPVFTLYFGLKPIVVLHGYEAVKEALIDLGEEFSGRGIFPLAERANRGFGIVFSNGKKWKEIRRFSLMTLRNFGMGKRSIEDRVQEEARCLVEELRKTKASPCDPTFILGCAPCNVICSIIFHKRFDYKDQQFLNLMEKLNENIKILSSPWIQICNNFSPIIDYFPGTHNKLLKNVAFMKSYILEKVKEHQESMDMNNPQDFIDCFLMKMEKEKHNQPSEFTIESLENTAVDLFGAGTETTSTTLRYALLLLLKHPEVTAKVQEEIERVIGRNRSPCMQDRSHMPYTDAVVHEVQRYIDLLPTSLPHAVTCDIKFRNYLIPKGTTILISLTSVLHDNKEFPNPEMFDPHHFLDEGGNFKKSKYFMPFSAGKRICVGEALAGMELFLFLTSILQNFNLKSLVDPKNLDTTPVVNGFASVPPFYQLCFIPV
Sequence of Cannabinoid receptor 2 (Homo sapiens) (P34972 whole entry): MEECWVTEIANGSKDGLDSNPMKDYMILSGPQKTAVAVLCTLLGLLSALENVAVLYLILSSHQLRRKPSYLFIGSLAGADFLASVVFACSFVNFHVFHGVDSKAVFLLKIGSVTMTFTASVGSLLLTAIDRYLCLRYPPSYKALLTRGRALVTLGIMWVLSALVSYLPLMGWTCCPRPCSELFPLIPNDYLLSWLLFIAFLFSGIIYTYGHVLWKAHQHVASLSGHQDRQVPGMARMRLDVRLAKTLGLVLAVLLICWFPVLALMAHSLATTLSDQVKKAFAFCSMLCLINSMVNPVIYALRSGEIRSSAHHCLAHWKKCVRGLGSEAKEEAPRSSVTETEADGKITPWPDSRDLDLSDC
Sequence of Prostaglandin G/H synthase 1 (Homo sapiens) (P23219 whole entry): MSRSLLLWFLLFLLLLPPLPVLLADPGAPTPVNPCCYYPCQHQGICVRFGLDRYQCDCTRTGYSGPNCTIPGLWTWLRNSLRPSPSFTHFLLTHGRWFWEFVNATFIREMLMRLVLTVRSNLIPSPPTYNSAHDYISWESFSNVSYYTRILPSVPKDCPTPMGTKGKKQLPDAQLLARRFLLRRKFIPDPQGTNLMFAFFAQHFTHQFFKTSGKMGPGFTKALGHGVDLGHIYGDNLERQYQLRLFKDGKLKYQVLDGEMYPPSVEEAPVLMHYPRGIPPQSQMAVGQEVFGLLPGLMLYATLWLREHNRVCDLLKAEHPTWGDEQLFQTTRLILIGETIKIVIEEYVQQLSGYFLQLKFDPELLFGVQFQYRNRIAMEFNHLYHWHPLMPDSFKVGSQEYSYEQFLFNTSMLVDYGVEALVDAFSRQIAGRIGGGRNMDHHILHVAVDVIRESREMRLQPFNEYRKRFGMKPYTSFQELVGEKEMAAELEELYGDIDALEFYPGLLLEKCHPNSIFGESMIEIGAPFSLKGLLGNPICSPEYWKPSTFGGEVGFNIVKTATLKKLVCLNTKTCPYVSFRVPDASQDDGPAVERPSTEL
Sequence of Cannabinoid receptor 1 (Homo sapiens) (P21554 whole entry): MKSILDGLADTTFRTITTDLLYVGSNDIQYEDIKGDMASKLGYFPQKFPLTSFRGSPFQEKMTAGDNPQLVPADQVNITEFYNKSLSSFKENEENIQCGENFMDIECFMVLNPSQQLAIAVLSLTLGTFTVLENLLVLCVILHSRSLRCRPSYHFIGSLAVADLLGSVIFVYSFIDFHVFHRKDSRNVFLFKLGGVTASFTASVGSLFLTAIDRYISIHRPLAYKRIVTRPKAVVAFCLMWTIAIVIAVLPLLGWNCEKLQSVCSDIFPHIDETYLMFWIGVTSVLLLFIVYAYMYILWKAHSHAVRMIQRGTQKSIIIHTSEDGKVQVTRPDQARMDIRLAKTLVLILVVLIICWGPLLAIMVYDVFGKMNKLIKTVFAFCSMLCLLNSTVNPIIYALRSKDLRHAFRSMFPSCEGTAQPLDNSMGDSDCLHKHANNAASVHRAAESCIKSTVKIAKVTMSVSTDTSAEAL

In the case of `O=C(O)Cc1ccccc1Nc1c(Cl)cccc1Cl` [DICLOFENAC], the Efficacy (Rattus norvegicus [1]) is reported as 91%.

Molecule `CNC1CN(c2nc(N)nc3c2CCCc2ccccc2-3)C1` has a Ratio Ki [2] of 215, a Kp at 0.5 h [3] of 5.8 and a Ki (Histamine H4 receptor [4]) of 3.63 nM. For the same molecule, the Ratio Ki [5] was > 610, the Activity [6] was “inactive” and the Ratio Ki [7] was 123. For the same molecule, the Efficacy (Rattus norvegicus [8]) was 39%, the EC50 (Histamine H4 receptor [9]) was 9.12 nM and the Activity [10] was “inactive”. The Stability [11] was 38.8 pmol/min/mg, the fraction unbound [12] was 0.52 and the Activity (Cytochrome P450 3A4) was “Not Active”. The Ratio Ki [13] was 940, the Activity (Cytochrome P450 2D6) was “Not Active” and the ED50 (Mus musculus [14]) was 17 µmol/kg. The Ki (Histamine H4 receptor [15]) was 11 nM, the fraction unbound [16] was 0.56 and the ED50 (Mus musculus [17]) was 25 µmol/kg. For the same molecule, the Stability (Liver microsomes [18]) was 20 pmol/min/mg, the Activity [19] was “inactive” and the Activity [20] was “inactive”. The Ratio Ki [21] was 310, the Activity [22] was “inactive” and the Ratio Ki [23] was 235. The Activity (Cytochrome P450 2C9) was “Not Active”, the EC50 (Histamine H4 receptor [24]) was 9.33 nM and the Stability (Liver microsomes [25]) was 165 pmol/min/mg. The Activity [26] was “inactive”, the Activity [27] was “inactive” and the pKb (Histamine H4 receptor [28]) was 8.05. For the same molecule, the Ratio Ki (Homo sapiens) was 93, the Efficacy (Rattus norvegicus [29]) was 78% and the Ratio Ki [30] was > 860. The Activity (BMMC) was “Active” and the Efficacy (Rattus norvegicus [31]) was 36%.

`NCC1(CC(=O)O)CCCCC1` [GABAPENTIN] showed an Efficacy (Rattus norvegicus [32]) of 62%.
